Assay results published in patent US20090181934A1, “Organic Compounds” (Novartis AG, priority 2007, published 2009).
Structures can show the parent of a compound that is named as a salt.

Target: adenosine A2A receptor (Homo sapiens, UniProt P29274)
Experiment: adenosine A2A receptor agonist assay (method of Murphree et al)
Type: binding
Conditions: method of L. J. Murphree et al, Molecular Pharmacology 61, 455-462 (2002)
Source text: The compounds of (A) activate the adenosine […] receptor, i.e. they act as A2A receptor agonists.

Sequence of adenosine A2A receptor (P29274 whole entry): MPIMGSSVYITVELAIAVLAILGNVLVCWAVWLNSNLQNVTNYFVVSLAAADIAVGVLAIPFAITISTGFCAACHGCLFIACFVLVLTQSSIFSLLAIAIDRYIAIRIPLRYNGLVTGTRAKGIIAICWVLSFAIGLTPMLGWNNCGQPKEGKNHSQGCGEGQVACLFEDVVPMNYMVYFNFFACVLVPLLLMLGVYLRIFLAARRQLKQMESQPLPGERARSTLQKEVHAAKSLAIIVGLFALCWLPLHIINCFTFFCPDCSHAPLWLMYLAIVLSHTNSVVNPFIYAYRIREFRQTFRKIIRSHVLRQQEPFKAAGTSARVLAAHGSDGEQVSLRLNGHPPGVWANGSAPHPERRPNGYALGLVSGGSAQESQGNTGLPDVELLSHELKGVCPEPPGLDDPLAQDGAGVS

Ki: 4 nM
Structure (SMILES): COC(=O)N[C@H]1C[C@@H](n2cnc3c(NCC(c4ccccc4)c4ccccc4)nc(N4CC[C@@H](NC(=O)Nc5cccnc5)C4)nc32)[C@H](O)[C@@H]1O [Example 1, ((1S,2R,3S,4R)-4-{6-(2,2-Diphenyl-ethylamino)-2-[(R)-3-(3-pyridin-3-yl-ureido)-pyrrolidin-1-yl]-purin-9-yl}-2,3-dihydroxy-cyclopentyl)-carbamic acid methyl ester hydrochloride]
